{"source": "PubChem BioAssay (NCI)", "experiment_in_all_cases": "DTP human tumour cell line panel, 48 h", "key": {"[1]": {"test_system": "LOX IMVI melanoma"}, "[2]": {"test_system": "XF 498 CNS"}, "[3]": {"test_system": "SF-268 CNS"}, "[4]": {"test_system": "DMS 114 small cell lung"}, "[5]": {"test_system": "TK-10 renal"}, "[6]": {"test_system": "SF-539 CNS"}, "[7]": {"test_system": "EKVX NSCLC"}, "[8]": {"test_system": "A549 NSCLC"}, "[9]": {"test_system": "ACHN renal"}, "[10]": {"test_system": "NCI-H23 lung"}, "[11]": {"test_system": "RXF 393 renal"}, "[12]": {"test_system": "A498 renal"}, "[13]": {"test_system": "RPMI-8226 leukemia"}, "[14]": {"test_system": "CCRF-CEM leukemia"}, "[15]": {"test_system": "OVCAR-8 ovarian"}, "[16]": {"test_system": "HOP-92 NSCLC"}, "[17]": {"test_system": "HOP-62 NSCLC"}, "[18]": {"test_system": "MOLT-4 leukemia"}, "[19]": {"test_system": "SK-OV-3 ovarian"}, "[20]": {"test_system": "COLO 205 colon"}, "[21]": {"test_system": "SK-MEL-28 melanoma"}, "[22]": {"test_system": "NCI-H460 lung"}, "[23]": {"test_system": "NCI-H522 lung"}, "[24]": {"test_system": "U251 CNS"}, "[25]": {"test_system": "HCT-15 colon"}, "[26]": {"test_system": "SW-620 colon"}, "[27]": {"test_system": "HOP-18 NSCLC"}, "[28]": {"test_system": "HCT-116 colon"}, "[29]": {"test_system": "SN12C renal"}, "[30]": {"test_system": "RXF-631 renal"}, "[31]": {"test_system": "HL-60(TB) leukemia"}, "[32]": {"test_system": "LXFL 529 NSCLC"}, "[33]": {"test_system": "UO-31 renal"}, "[34]": {"test_system": "DMS 273 small cell lung"}, "[35]": {"test_system": "K-562 leukemia"}, "[36]": {"test_system": "SK-MEL-5 melanoma"}, "[37]": {"test_system": "M14 melanoma"}, "[38]": {"test_system": "DLD-1 colon"}, "[39]": {"test_system": "KM20L2 colon"}, "[40]": {"test_system": "M19-MEL melanoma"}, "[41]": {"test_system": "UACC-257 melanoma"}, "[42]": {"test_system": "OVCAR-3 ovarian"}, "[43]": {"test_system": "SNB-19 CNS"}, "[44]": {"test_system": "SNB-75 CNS"}, "[45]": {"test_system": "SNB-78 CNS"}, "[46]": {"test_system": "SF-295 CNS"}, "[47]": {"test_system": "HCC-2998 colon"}, "[48]": {"test_system": "SK-MEL-2 melanoma"}, "[49]": {"test_system": "KM12 colon"}, "[50]": {"test_system": "UACC-62 melanoma"}, "[51]": {"test_system": "HT29 colon"}, "[52]": {"test_system": "IGROV1 ovarian"}, "[53]": {"test_system": "MALME-3M melanoma"}, "[54]": {"test_system": "NCI-H226 lung"}, "[55]": {"test_system": "OVCAR-5 ovarian"}, "[56]": {"test_system": "OVCAR-4 ovarian"}}, "note": "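Cells were grown in 96-well plates and exposed to each compound for 48 hours at five concentrations; endpoints were interpolated linearly between bracketing concentrations, or set to the highest concentration if not reached. TGI: concentration producing complete growth inhibition.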"}
{"smiles": "CCc1nc2ccccc2c(=O)n1/N=C(\\N=Nc1ccc(Cl)cc1)c1ccc(N(C)C)cc1", "values": [{"measurement": "TGI", "setting": "[1]", "value": "> 100", "unit": "µM"}, {"measurement": "TGI", "setting": "[2]", "value": 80.7, "unit": "µM"}, {"measurement": "TGI", "setting": "[3]", "value": "> 100", "unit": "µM"}, {"measurement": "TGI", "setting": "[4]", "value": 47, "unit": "µM"}, {"measurement": "TGI", "setting": "[5]", "value": "> 100", "unit": "µM"}, {"measurement": "TGI", "setting": "[6]", "value": "> 100", "unit": "µM"}, {"measurement": "TGI", "setting": "[7]", "value": "> 100", "unit": "µM"}, {"measurement": "TGI", "setting": "[8]", "value": "> 100", "unit": "µM"}, {"measurement": "TGI", "setting": "[9]", "value": "> 100", "unit": "µM"}, {"measurement": "TGI", "setting": "[10]", "value": 92.4, "unit": "µM"}, {"measurement": "TGI", "setting": "[11]", "value": "> 100", "unit": "µM"}, {"measurement": "TGI", "setting": "[12]", "value": "> 100", "unit": "µM"}, {"measurement": "TGI", "setting": "[13]", "value": 80.7, "unit": "µM"}, {"measurement": "TGI", "setting": "[14]", "value": "> 100", "unit": "µM"}, {"measurement": "TGI", "setting": "[15]", "value": "> 100", "unit": "µM"}, {"measurement": "TGI", "setting": "[16]", "value": 59, "unit": "µM"}, {"measurement": "TGI", "setting": "[17]", "value": 50, "unit": "µM"}, {"measurement": "TGI", "setting": "[18]", "value": 92.2, "unit": "µM"}, {"measurement": "TGI", "setting": "[19]", "value": 99.4, "unit": "µM"}, {"measurement": "TGI", "setting": "[20]", "value": 73.5, "unit": "µM"}, {"measurement": "TGI", "setting": "[21]", "value": "> 100", "unit": "µM"}, {"measurement": "TGI", "setting": "[22]", "value": "> 100", "unit": "µM"}, {"measurement": "TGI", "setting": "[23]", "value": 66.9, "unit": "µM"}, {"measurement": "TGI", "setting": "[24]", "value": "> 100", "unit": "µM"}, {"measurement": "TGI", "setting": "[25]", "value": "> 100", "unit": "µM"}, {"measurement": "TGI", "setting": "[26]", "value": "> 100", "unit": "µM"}, {"measurement": "TGI", "setting": "[27]", "value": "> 100", "unit": "µM"}, {"measurement": "TGI", "setting": "[28]", "value": 73.6, "unit": "µM"}, {"measurement": "TGI", "setting": "[29]", "value": "> 100", "unit": "µM"}, {"measurement": "TGI", "setting": "[30]", "value": "> 100", "unit": "µM"}, {"measurement": "TGI", "setting": "[31]", "value": 51.6, "unit": "µM"}, {"measurement": "TGI", "setting": "[32]", "value": "> 100", "unit": "µM"}, {"measurement": "TGI", "setting": "[33]", "value": 60.1, "unit": "µM"}, {"measurement": "TGI", "setting": "[34]", "value": "> 100", "unit": "µM"}, {"measurement": "TGI", "setting": "[35]", "value": 79.3, "unit": "µM"}, {"measurement": "TGI", "setting": "[36]", "value": 64.6, "unit": "µM"}, {"measurement": "TGI", "setting": "[37]", "value": "> 100", "unit": "µM"}, {"measurement": "TGI", "setting": "[38]", "value": "> 100", "unit": "µM"}, {"measurement": "TGI", "setting": "[39]", "value": 69.9, "unit": "µM"}]}
{"smiles": "Cc1cn(C2CC(O)C(CO)C2C)c(=O)[nH]c1=O", "note": "(stereo unspecified)", "values": [{"measurement": "TGI", "setting": "[1]", "value": "> 100", "unit": "µM"}, {"measurement": "TGI", "setting": "[2]", "value": "> 100", "unit": "µM"}, {"measurement": "TGI", "setting": "[3]", "value": "> 100", "unit": "µM"}, {"measurement": "TGI", "setting": "[40]", "value": "> 100", "unit": "µM"}, {"measurement": "TGI", "setting": "[4]", "value": "> 100", "unit": "µM"}, {"measurement": "TGI", "setting": "[6]", "value": "> 100", "unit": "µM"}, {"measurement": "TGI", "setting": "[41]", "value": "> 100", "unit": "µM"}, {"measurement": "TGI", "setting": "[7]", "value": "> 100", "unit": "µM"}, {"measurement": "TGI", "setting": "[42]", "value": "> 100", "unit": "µM"}, {"measurement": "TGI", "setting": "[8]", "value": "> 100", "unit": "µM"}, {"measurement": "TGI", "setting": "[9]", "value": "> 100", "unit": "µM"}, {"measurement": "TGI", "setting": "[10]", "value": "> 100", "unit": "µM"}, {"measurement": "TGI", "setting": "[11]", "value": "> 100", "unit": "µM"}, {"measurement": "TGI", "setting": "[43]", "value": "> 100", "unit": "µM"}, {"measurement": "TGI", "setting": "[14]", "value": "> 100", "unit": "µM"}, {"measurement": "TGI", "setting": "[15]", "value": "> 100", "unit": "µM"}, {"measurement": "TGI", "setting": "[16]", "value": "> 100", "unit": "µM"}, {"measurement": "TGI", "setting": "[17]", "value": "> 100", "unit": "µM"}, {"measurement": "TGI", "setting": "[18]", "value": "> 100", "unit": "µM"}, {"measurement": "TGI", "setting": "[44]", "value": "> 100", "unit": "µM"}, {"measurement": "TGI", "setting": "[19]", "value": "> 100", "unit": "µM"}, {"measurement": "TGI", "setting": "[45]", "value": "> 100", "unit": "µM"}, {"measurement": "TGI", "setting": "[20]", "value": "> 100", "unit": "µM"}, {"measurement": "TGI", "setting": "[46]", "value": "> 100", "unit": "µM"}, {"measurement": "TGI", "setting": "[21]", "value": "> 100", "unit": "µM"}, {"measurement": "TGI", "setting": "[22]", "value": "> 100", "unit": "µM"}, {"measurement": "TGI", "setting": "[47]", "value": "> 100", "unit": "µM"}, {"measurement": "TGI", "setting": "[48]", "value": "> 100", "unit": "µM"}, {"measurement": "TGI", "setting": "[23]", "value": "> 100", "unit": "µM"}, {"measurement": "TGI", "setting": "[24]", "value": "> 100", "unit": "µM"}, {"measurement": "TGI", "setting": "[49]", "value": "> 100", "unit": "µM"}, {"measurement": "TGI", "setting": "[50]", "value": "> 100", "unit": "µM"}, {"measurement": "TGI", "setting": "[51]", "value": "> 100", "unit": "µM"}, {"measurement": "TGI", "setting": "[52]", "value": "> 100", "unit": "µM"}, {"measurement": "TGI", "setting": "[25]", "value": "> 100", "unit": "µM"}, {"measurement": "TGI", "setting": "[26]", "value": "> 100", "unit": "µM"}, {"measurement": "TGI", "setting": "[53]", "value": "> 100", "unit": "µM"}, {"measurement": "TGI", "setting": "[27]", "value": "> 100", "unit": "µM"}, {"measurement": "TGI", "setting": "[28]", "value": "> 100", "unit": "µM"}, {"measurement": "TGI", "setting": "[54]", "value": "> 100", "unit": "µM"}, {"measurement": "TGI", "setting": "[29]", "value": "> 100", "unit": "µM"}, {"measurement": "TGI", "setting": "[30]", "value": "> 100", "unit": "µM"}, {"measurement": "TGI", "setting": "[31]", "value": "> 100", "unit": "µM"}, {"measurement": "TGI", "setting": "[32]", "value": "> 100", "unit": "µM"}, {"measurement": "TGI", "setting": "[55]", "value": "> 100", "unit": "µM"}, {"measurement": "TGI", "setting": "[33]", "value": "> 100", "unit": "µM"}, {"measurement": "TGI", "setting": "[34]", "value": "> 100", "unit": "µM"}, {"measurement": "TGI", "setting": "[35]", "value": "> 100", "unit": "µM"}, {"measurement": "TGI", "setting": "[37]", "value": "> 100", "unit": "µM"}, {"measurement": "TGI", "setting": "[56]", "value": "> 100", "unit": "µM"}, {"measurement": "TGI", "setting": "[38]", "value": "> 100", "unit": "µM"}, {"measurement": "TGI", "setting": "[39]", "value": "> 100", "unit": "µM"}]}
